Active and inactive are the calls of the source.
Tests used:
[1] = NIH-3T3 fibroblast cytotoxicity, dose response, cytotoxicity control, cell-based, fluorescence, Alamar Blue, secondary assay (AID 2327); assay type: functional;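 note: NIH-3T3 mouse fibroblasts cultured with fluconazole at 8 µg/mL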
Nonstructural protein 1 = Nonstructural protein 1 (Influenza A virus, UniProt Q194T2); assay type: functional, Influenza A virus (A/California/07/2009(H1N1))
[2] = fluconazole-exposed Candida albicans growth modulators – fluorescence, retest, confirmation (AID 2467); assay type: functional, cell-based
[3] = target: ATP-dependent molecular chaperone HSP82 (Candida albicans (strain WO-1) (Yeast), UniProt C4YTQ8); assay: steroid-induced GRE reporter decrease in yeast – S. cerevisiae, luminescence, Hsp90 inhibitor project, dose response (AID 2400); assay type: functional, cell-based;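 note: beta-galactosidase luminescence from glucocorticoid response element reporter as proxy for Hsp90 function; inhibitor potency where signal loss means Hsp90 inhibition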
[4] = target: Mitogen-activated protein kinase 9 (Homo sapiens, UniProt P45984); assay type: functional;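 note: value from a kinome panel profiling assay, MAPK9 panel entry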
Chain of Mitogen-activated protein kinase 9 (P45984 whole entry): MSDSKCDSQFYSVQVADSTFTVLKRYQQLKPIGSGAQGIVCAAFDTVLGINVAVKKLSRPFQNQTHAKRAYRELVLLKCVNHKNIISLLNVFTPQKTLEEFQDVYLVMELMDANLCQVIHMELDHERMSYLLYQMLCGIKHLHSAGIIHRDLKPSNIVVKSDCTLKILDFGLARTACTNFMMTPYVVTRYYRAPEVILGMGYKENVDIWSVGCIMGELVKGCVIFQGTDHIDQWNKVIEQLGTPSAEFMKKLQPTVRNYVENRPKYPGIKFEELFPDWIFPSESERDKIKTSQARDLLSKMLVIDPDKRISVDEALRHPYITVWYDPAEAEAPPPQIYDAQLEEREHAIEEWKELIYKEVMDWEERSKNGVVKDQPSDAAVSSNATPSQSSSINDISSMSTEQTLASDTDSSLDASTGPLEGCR

[5] = target: Serine/threonine-protein kinase Chk1 (Homo sapiens, UniProt O14757); assay type: functional;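 note: measured as one member of a kinome-wide kinase profiling panel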
Chain of Serine/threonine-protein kinase Chk1 (O14757 whole entry): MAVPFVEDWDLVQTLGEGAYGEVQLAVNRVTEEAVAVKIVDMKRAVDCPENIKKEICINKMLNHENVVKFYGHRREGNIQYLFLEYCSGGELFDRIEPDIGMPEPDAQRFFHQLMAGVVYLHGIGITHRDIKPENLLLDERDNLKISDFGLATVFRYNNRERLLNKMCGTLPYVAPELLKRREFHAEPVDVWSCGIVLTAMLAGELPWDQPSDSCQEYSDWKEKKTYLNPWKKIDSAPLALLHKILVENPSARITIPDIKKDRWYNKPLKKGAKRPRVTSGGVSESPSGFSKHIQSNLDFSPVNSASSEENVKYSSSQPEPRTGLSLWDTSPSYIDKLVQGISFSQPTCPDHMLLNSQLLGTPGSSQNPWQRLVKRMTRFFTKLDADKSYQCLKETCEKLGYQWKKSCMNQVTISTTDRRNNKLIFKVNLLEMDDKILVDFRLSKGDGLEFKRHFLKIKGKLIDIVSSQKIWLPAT

[6] = target: Tyrosine-protein kinase JAK3 (Homo sapiens, UniProt P52333); assay type: functional
[7] = target: Interleukin-1 receptor-associated kinase 1 (Homo sapiens, UniProt P51617); assay type: functional;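 note: IRAK1 tested as one member of a kinome panel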
[8] = target: Platelet-derived growth factor receptor alpha (Homo sapiens, UniProt P16234); assay: Navigating the Kinome. Panel member name: PDGFRA; assay type: functional
[9] = target: Dual specificity protein kinase CLK4 (Homo sapiens, UniProt Q9HAZ1); assay type: functional
Chain of Dual specificity protein kinase CLK4 (Q9HAZ1 whole entry): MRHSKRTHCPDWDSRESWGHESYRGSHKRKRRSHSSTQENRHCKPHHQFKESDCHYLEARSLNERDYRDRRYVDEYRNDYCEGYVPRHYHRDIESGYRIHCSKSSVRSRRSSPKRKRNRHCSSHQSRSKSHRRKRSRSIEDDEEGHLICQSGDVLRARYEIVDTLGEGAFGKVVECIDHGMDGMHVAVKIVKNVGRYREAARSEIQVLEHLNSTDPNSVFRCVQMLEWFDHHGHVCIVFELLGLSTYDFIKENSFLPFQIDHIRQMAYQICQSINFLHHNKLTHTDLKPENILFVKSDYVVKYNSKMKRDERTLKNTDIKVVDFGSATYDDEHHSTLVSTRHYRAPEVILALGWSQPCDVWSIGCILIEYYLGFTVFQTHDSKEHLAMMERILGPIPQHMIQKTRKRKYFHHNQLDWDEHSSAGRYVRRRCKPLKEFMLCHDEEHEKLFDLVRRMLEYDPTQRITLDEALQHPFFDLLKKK

[10] = target: Ribosomal protein S6 kinase alpha-5 (Homo sapiens, UniProt O75582); assay type: functional
[11] = target: Serine/threonine-protein kinase TBK1 (Homo sapiens, UniProt Q9UHD2); assay: Navigating the Kinome. Panel member name: TBK1; assay type: functional
Chain of Serine/threonine-protein kinase TBK1 (Q9UHD2 whole entry): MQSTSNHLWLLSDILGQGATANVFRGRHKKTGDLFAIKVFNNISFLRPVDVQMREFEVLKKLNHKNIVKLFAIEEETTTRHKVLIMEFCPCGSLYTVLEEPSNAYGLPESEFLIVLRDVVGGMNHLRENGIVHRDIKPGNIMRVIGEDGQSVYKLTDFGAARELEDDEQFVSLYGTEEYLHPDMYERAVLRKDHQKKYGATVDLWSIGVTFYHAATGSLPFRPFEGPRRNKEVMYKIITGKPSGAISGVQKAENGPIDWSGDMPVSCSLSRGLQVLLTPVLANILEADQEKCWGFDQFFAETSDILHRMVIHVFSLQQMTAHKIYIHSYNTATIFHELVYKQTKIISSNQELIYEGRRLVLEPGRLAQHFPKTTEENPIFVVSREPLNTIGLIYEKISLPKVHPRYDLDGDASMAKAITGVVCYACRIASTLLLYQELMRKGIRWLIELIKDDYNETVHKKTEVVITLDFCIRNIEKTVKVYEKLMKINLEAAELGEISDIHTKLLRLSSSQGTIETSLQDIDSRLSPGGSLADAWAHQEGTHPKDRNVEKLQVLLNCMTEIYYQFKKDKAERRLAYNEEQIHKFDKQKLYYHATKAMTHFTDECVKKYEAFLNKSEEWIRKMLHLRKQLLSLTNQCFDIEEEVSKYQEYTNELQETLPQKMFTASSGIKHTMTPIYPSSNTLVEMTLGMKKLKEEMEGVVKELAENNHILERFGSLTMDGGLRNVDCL

[12] = target: Megakaryocyte-associated tyrosine-protein kinase (Homo sapiens, UniProt P42679); assay type: functional;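 note: affinity measured as one member of a kinase panel (Navigating the Kinome) against MATK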
[13] = target: Tyrosine-protein kinase receptor UFO (Homo sapiens, UniProt P30530); assay type: functional
[14] = target: Mitogen-activated protein kinase 10 (Homo sapiens, UniProt P53779); assay: Navigating the Kinome. Panel member name: MAPK10; assay type: functional
Chain of Mitogen-activated protein kinase 10 (P53779 whole entry): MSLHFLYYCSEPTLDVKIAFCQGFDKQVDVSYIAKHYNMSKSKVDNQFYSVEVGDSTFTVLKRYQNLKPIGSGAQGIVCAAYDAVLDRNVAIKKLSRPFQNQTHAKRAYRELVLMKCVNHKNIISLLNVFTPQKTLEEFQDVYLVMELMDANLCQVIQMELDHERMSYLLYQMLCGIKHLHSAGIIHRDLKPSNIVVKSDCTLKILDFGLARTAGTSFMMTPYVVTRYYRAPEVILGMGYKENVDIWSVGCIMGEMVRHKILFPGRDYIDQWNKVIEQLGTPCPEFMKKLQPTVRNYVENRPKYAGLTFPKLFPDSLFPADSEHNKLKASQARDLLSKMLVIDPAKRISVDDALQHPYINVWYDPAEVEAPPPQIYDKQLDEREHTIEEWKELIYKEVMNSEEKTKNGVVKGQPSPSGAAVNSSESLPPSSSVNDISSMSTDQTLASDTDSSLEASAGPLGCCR

[15] = target: Protein kinase C delta type (Homo sapiens, UniProt Q05655); assay type: functional
Chain of Protein kinase C delta type (Q05655 whole entry): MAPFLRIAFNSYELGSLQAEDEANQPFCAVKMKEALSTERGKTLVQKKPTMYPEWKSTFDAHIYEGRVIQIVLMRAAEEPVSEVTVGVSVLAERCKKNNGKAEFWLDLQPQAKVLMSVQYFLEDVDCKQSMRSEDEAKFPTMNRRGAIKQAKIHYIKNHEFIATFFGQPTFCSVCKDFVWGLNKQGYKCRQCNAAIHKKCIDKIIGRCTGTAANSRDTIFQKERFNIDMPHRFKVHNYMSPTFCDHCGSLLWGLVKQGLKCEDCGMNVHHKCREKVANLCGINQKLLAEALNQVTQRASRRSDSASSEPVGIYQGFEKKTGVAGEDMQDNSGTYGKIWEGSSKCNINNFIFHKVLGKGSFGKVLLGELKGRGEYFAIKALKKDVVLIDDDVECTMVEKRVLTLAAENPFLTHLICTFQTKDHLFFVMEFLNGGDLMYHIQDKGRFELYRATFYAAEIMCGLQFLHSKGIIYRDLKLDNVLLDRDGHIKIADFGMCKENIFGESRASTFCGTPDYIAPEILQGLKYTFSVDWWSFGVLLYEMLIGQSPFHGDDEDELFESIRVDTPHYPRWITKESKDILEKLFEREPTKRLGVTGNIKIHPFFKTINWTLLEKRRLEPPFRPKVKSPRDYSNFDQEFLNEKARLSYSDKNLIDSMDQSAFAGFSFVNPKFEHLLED

[16] = target: Receptor tyrosine-protein kinase erbB-4 (Homo sapiens, UniProt Q15303); assay type: functional;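 note: ERBB4 member of a kinome-wide kinase profiling panel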
Chain of Receptor tyrosine-protein kinase erbB-4 (Q15303 whole entry): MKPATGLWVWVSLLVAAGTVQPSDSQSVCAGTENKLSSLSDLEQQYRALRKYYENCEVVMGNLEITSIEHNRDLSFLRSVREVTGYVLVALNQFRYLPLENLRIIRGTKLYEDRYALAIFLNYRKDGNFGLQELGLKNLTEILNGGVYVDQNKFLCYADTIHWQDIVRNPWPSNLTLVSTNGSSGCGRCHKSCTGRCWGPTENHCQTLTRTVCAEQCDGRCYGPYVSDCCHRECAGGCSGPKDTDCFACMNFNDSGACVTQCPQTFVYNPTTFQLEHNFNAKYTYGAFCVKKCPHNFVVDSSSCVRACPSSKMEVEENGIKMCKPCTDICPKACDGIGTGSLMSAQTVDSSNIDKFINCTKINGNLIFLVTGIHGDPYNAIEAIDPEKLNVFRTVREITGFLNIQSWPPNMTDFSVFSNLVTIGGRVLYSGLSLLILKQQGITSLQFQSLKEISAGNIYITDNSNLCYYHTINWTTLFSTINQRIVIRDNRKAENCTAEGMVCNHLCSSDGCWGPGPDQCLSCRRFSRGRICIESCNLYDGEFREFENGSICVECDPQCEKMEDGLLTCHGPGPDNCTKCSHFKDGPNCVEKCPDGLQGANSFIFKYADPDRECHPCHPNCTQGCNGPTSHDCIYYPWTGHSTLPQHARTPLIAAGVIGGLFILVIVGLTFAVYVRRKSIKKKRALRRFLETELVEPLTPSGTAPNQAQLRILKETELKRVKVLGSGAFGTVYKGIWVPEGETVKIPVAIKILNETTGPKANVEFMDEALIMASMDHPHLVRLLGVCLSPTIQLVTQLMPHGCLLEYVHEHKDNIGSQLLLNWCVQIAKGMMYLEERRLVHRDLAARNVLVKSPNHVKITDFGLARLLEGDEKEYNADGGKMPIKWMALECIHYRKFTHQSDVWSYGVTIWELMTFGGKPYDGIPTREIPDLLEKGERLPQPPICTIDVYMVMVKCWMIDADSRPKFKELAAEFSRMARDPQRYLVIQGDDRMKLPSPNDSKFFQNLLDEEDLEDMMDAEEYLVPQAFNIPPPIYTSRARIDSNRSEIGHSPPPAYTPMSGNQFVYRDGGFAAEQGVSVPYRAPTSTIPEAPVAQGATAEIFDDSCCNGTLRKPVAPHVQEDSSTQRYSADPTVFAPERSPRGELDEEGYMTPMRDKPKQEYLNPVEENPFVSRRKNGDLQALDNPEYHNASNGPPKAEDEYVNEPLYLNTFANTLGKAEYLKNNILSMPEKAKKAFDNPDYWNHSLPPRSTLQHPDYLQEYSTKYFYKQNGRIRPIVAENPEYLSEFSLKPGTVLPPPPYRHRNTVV

[17] = target: Tyrosine-protein kinase Srms (Homo sapiens, UniProt Q9H3Y6); assay type: functional;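 note: SRMS measured as one member of a kinome-wide kinase profiling panel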
[18] = target: Phosphorylase b kinase gamma catalytic chain, liver/testis isoform (Homo sapiens, UniProt P15735); assay type: functional;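 note: PHKG2 measured as one member of a kinome-wide kinase panel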
[19] = target: Calcium/calmodulin-dependent protein kinase type II subunit alpha (Homo sapiens, UniProt Q9UQM7); assay: Navigating the Kinome. Panel member name: CAMK2A; assay type: functional
[20] = target: Serine/threonine-protein kinase 17A (Homo sapiens, UniProt Q9UEE5); assay type: functional
[21] = target: RAC-gamma serine/threonine-protein kinase (Homo sapiens, UniProt Q9Y243); assay type: functional
[22] = target: Protein kinase C theta type (Homo sapiens, UniProt Q04759); assay: Navigating the Kinome. Panel member name: PRKCQ; assay type: functional
[23] = target: Leukocyte tyrosine kinase receptor (Homo sapiens, UniProt P29376); assay: Navigating the Kinome. Panel member name: LTK; assay type: functional
Misshapen-like kinase 1 = Misshapen-like kinase 1 (Homo sapiens, UniProt Q8N4C8); assay type: functional;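 note: kinome panel screen with MINK as the panel member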
[24] = target: Mitogen-activated protein kinase kinase kinase 10 (Homo sapiens, UniProt Q02779); assay: Navigating the Kinome. Panel member name: MAP3K10; assay type: functional
[25] = target: Tyrosine-protein kinase receptor TYRO3 (Homo sapiens, UniProt Q06418); assay type: functional;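 note: TYRO3 value obtained as one member of a kinome-wide profiling panel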
[26] = target: Fibroblast growth factor receptor 1 (Homo sapiens, UniProt P11362); assay type: functional
[27] = target: Mitogen-activated protein kinase 12 (Homo sapiens, UniProt P53778); assay type: functional;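 note: measured as one member of a kinome-wide kinase profiling panel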
Chain of Mitogen-activated protein kinase 12 (P53778 whole entry): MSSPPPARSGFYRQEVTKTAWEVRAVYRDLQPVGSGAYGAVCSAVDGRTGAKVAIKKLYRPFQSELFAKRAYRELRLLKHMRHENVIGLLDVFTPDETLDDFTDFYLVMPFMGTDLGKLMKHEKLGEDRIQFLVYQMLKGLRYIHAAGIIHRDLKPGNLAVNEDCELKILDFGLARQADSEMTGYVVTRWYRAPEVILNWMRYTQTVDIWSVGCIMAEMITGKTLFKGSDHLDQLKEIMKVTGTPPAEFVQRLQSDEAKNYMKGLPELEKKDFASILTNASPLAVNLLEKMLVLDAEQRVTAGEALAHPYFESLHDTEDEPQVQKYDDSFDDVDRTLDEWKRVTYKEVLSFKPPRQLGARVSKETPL

[28] = target: Calcium/calmodulin-dependent protein kinase type II subunit delta (Homo sapiens, UniProt Q13557); assay type: functional
[29] = target: Cyclin-dependent kinase 9 (Homo sapiens, UniProt P50750); assay type: functional;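 note: value from the CDK9 entry of a kinome-spanning kinase panel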

Compound: CCCn1nc([N+](=O)[O-])c(C(C#N)c2nc3ccccc3s2)c(Cl)c1=O (stereo unspecified)
- EC50 [1]: > 160000 nM (inactive)
- IC50 (Nonstructural protein 1): 24700 nM (active)
- EC50 [2]: 661 nM (active)
- EC50 [3]: 10700 nM (active)

Compound: NCCCn1cc(-c2cc(-c3cc4ccccc4s3)c3[nH]ncc3c2)c2nc(N)ncc21
- Ki [4]: > 2000 nM (inactive)
- Ki [5]: 1260 nM (active)
- Ki [6]: > 3980 nM (inactive)
- Ki [7]: 1260 nM (active)
- Ki [8]: > 2000 nM (inactive)
- Ki [9]: 31.6 nM (active)
- Ki [10]: 631 nM (active)
- Ki [11]: > 1580 nM (inactive)
- Ki [12]: > 2000 nM (inactive)
- Ki [13]: 501 nM (active)
- Ki [14]: > 3160 nM (inactive)
- Ki [15]: 316 nM (active)
- Ki [16]: > 3980 nM (inactive)
- Ki [17]: > 1580 nM (inactive)
- Ki [18]: 126 nM (active)
- Ki [19]: > 5010 nM (inactive)
- Ki [20]: 39.8 nM (active)
- Ki [21]: 251 nM (active)
- Ki [22]: > 2000 nM (inactive)
- Ki [23]: > 2510 nM (inactive)
- Ki (Misshapen-like kinase 1): 100 nM (active)
- Ki [24]: 126 nM (active)
- Ki [25]: > 2510 nM (inactive)
- Ki [26]: > 3980 nM (inactive)
- Ki [27]: 1260 nM (active)
- Ki [28]: 158 nM (active)
- Ki [29]: > 1580 nM (inactive)
